One assay has as its target T1, human TLR8 (Homo sapiens, UniProt Q9NR97).
T1 construct: host or cells: HEK293 (HEK-Blue hTLR8)
T1 sequence (Q9NR97 27-1041): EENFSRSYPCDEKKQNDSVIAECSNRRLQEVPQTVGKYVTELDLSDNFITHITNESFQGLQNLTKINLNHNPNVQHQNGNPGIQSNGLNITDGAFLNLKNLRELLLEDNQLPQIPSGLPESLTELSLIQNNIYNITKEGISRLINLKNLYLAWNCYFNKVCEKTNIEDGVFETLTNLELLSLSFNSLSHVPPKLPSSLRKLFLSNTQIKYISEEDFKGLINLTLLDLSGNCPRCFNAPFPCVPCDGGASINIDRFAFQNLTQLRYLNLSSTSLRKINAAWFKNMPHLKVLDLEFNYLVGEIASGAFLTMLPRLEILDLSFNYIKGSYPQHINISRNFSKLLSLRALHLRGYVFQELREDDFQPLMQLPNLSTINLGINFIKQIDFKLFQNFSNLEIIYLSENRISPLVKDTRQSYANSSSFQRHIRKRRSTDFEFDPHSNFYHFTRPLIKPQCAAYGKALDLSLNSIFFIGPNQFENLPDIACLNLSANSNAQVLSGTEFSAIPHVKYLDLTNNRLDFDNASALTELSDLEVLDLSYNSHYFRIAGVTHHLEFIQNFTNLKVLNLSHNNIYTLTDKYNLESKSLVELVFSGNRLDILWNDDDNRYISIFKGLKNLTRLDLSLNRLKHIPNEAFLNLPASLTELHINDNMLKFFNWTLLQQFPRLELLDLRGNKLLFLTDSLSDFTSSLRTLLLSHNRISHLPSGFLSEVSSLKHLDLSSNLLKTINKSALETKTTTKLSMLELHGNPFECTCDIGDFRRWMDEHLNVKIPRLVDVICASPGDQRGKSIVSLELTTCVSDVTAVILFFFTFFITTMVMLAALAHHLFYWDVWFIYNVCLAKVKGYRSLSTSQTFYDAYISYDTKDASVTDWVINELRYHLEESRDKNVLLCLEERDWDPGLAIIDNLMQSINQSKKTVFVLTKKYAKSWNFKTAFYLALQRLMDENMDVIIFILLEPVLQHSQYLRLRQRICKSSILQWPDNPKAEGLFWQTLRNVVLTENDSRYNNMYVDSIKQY
Briefly: HEK-Blue hTLR8 reporter cell assay (SEAP, NF-kB/AP-1) for stimulation of human TLR8. The assay is classed as cell-based. The note with it: HEK-Blue hTLR8 cells; for activation at 20 µM: 24 h, at 20000 nM; for EC50: 24 h incubation, SEAP readout, read-out: TLR8_EC50. A digest of the protocol:
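Stimulation is quantified as secreted alkaline phosphatase in supernatant using QUANTI-Blue™ substrate. Reporter HEK293 line co-transfected with hTLR8 and SEAP under an IFN-β minimal promoter with five NF-κB/AP-1 sites; 3.10E4 cells/well, 18 to 24 h pre-culture at 37° C. before compounds.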

For another assay, the target named is T2, human TLR7 (Homo sapiens, UniProt Q9NYK1).
T2 construct: host or cells: HEK293 (HEK-Blue hTLR7)
T2 sequence (Q9NYK1 27-1049): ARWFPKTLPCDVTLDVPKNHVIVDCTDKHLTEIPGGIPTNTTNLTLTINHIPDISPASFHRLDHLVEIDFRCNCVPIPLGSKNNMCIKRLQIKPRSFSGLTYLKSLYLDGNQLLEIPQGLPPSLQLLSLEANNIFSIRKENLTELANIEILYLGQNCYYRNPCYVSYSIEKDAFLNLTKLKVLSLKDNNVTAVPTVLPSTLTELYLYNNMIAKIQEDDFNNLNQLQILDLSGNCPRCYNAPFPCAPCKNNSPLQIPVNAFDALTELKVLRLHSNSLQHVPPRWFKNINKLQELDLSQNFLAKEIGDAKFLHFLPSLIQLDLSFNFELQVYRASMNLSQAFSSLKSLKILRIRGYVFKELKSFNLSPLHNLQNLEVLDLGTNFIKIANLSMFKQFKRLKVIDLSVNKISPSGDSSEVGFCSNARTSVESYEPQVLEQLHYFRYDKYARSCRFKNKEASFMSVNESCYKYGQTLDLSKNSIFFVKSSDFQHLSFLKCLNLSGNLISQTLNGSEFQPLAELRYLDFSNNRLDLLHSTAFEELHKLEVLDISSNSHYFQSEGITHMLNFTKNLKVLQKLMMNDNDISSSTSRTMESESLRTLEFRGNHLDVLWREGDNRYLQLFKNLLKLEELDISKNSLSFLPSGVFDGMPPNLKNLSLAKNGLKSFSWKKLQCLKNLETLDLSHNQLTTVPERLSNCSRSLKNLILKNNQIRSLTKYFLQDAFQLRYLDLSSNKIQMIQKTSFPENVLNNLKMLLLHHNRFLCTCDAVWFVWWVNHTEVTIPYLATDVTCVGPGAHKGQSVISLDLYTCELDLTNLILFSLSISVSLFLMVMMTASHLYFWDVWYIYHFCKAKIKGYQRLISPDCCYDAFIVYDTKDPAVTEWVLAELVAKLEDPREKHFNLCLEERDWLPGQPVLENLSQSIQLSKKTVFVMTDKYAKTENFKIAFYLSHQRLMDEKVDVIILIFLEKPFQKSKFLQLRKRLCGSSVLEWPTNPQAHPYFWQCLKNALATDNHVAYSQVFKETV
Nature of the assay: HEK-Blue hTLR7 reporter cell assay (SEAP, NF-kB/AP-1) for stimulation of human TLR7. The assay is classed as cell-based. The note with it: HEK-Blue hTLR7 cells; for activation at 20 µM: 24 h, at 20000 nM; for EC50: 24 h incubation, SEAP readout, read-out: TLR7_EC50. A digest of the protocol: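 Activity expressed as EC50 for half-maximal SEAP induction. Compounds, serially diluted 3-fold from 20 to 0.01 μM, were incubated 24 h at 37 °C, 5% CO2 with HEK-Blue hTLR7 reporter cells (3.10E4/well, plated 18–24 h earlier); supernatant developed with QUANTI-Blue.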

Structures are written as SMILES. Structures can show the parent of a compound that is named as a salt.

As for `CCCCc1nc2c(N)nnc(OC(C)C)c2n1Cc1ccc(CNCCOCCOCCOCCOCCOCCOCCOCCOCCOCCOCCOCCOC)cc1` [Compound 123, 2-butyl-4-isopropoxy-3-[[4-[[2-[2-[2-[2-[2-[2-[2-[2-[2-[2-[2-(2-methoxyethoxy)ethoxy]ethoxy]ethoxy]ethoxy]ethoxy]ethoxy]ethoxy]ethoxy]ethoxy]ethoxy]ethylamino]methyl]phenyl]methyl]imidazo[4,5-d]pyridazin-7-amine di2,2,2-trifluoroacetate], the activation at 20 µM is 10.2% at human TLR8 and 13.5% at human TLR7.
Turning to `CCCCc1nc2c(N)nnc(OC(C)C)c2n1Cc1cccc(CNC)c1` [Compound 124, 2-butyl-7-isopropoxy-1-(3-((methylamino)methyl)benzyl)-1H-imidazo[4,5-d]pyridazin-4-amine], the EC50 on human TLR8 is 0.231 µM; on human TLR7, 0.178 µM.
For `CCCCc1nc2c(N)nnc(OC(C)C)c2n1Cc1cccc(CN(C)C)c1` [Compound 125, 2-butyl-1-(3-((dimethylamino)methyl)benzyl)-7-isopropoxy-1H-imidazo[4,5-d]pyridazin-4-amine], in that order: 0.115 µM and 0.392 µM.
For `CCCCc1nc2c(N)nnc(OC(C)C)c2n1Cc1cccc(CNC2CCC2)c1` [Compound 126, 2-butyl-1-(3-((cyclobutylamino)methyl)benzyl)-7-isopropoxy-1H-imidazo[4,5-d]pyridazin-4-amine dihydrochloride salt], the EC50 on human TLR8 worked out at 0.382 µM; on human TLR7, 0.122 µM.
Regarding `CCCCc1nc2c(N)nnc(OC(C)C)c2n1Cc1cccc(CNC2CC2)c1` [Compound 127, 2-butyl-1-(3-((cyclopropylamino)methyl)benzyl)-7-isopropoxy-1H-imidazo[4,5-d]pyridazin-4-amine dihydrochloride salt], the EC50 at human TLR8 turned out to be 0.179 µM; on human TLR7, 0.093 µM.
For `CCCCc1nc2c(N)nnc(OC(C)C)c2n1Cc1cccc(CNC(C)C)c1` [Compound 128, 2-butyl-7-isopropoxy-1-(3-((isopropylamino)methyl)benzyl)-1H-imidazo[4,5-d]pyridazin-4-amine dihydrochloride salt] the same measures were above 20 µM and 5.98 µM.
As for `CCCCc1nc2c(N)nnc(OC(C)C)c2n1Cc1cccc(CNC2CS(=O)(=O)C2)c1` [Compound 129, 3-((3-((4-amino-2-butyl-7-isopropoxy-1H-imidazo[4,5-d]pyridazin-1-yl)methyl)benzyl)amino)thietane 1,1-dioxide], the EC50 amounted to 6.26 µM on human TLR8 and 1.55 µM at human TLR7.
Turning to `CCCCc1nc2c(N)nnc(OC(C)C)c2n1Cc1cccc(CNC2(C)CCC2)c1` [Compound 130, 2-butyl-7-isopropoxy-1-(3-(((1-methylcyclobutyl)amino)methyl)benzyl)-1H-imidazo[4,5-d]pyridazin-4-amine dihydrochloride salt], the results for the EC50 at human TLR8 and at human TLR7 were 1.06 µM and 0.076 µM, respectively.
Regarding `CCCCc1nc2c(N)nnc(OC(C)C)c2n1Cc1cccc(CN2CCNCC2)c1` [Compound 131, 2-butyl-7-isopropoxy-1-(3-(piperazin-1-ylmethyl)benzyl)-1H-imidazo[4,5-d]pyridazin-4-amine], the EC50 was above 20 µM at human TLR8 and 0.607 µM on human TLR7.
As for `CCCCc1nc2c(N)nnc(/C=C/C(C)C)c2n1Cc1ccc(CN)cc1` [Compound 132, (E)-1-(4-(aminomethyl)benzyl)-2-butyl-7-(3-methylbut-1-en-1-yl)-1H-imidazo[4,5-d]pyridazin-4-amine], the figures for the EC50 at human TLR8 and on human TLR7 were above 18.5 µM and 0.296 µM, respectively.
For `CCCCc1nc2c(N)nnc(CCC(C)C)c2n1Cc1ccc(CN)cc1` [Compound 133, 1-(4-(aminomethyl)benzyl)-2-butyl-7-isopentyl-1H-imidazo[4,5-d]pyridazin-4-amine] the same measures were above 19 µM and 0.146 µM.
For `CCCCc1nc2c(N)nnc(N3CCCC3)c2n1Cc1ccc(CN)cc1` [Compound 134, 1-(4-(aminomethyl)benzyl)-2-butyl-7-(pyrrolidin-1-yl)-1H-imidazo[4,5-d]pyridazin-4-amine], in that order: above 20 µM and 0.274 µM.
For `CCCCc1nc2c(N)nnc(-c3cc[nH]c3)c2n1Cc1ccc(CN)cc1` [Compound 135, 1-(4-(aminomethyl)benzyl)-2-butyl-7-(1H-pyrrol-3-yl)-1H-imidazo[4,5-d]pyridazin-4-amine 2,2,2-trifluoroacetate], in that order: 0.252 µM and 0.136 µM.
`CCCCc1nc2c(N)nnc(/C=C/C(C)C)c2n1C[C@H]1CC[C@H](CN)CC1` [Compound 137, 1-(((1R,4R)-4-(aminomethyl)cyclohexyl)methyl)-2-butyl-7-((E)-3-methylbut-1-en-1-yl)-1H-imidazo[4,5-d]pyridazin-4-amine]: the figures for the EC50 at human TLR8 and on human TLR7 were above 20 µM and 0.145 µM, respectively.
For `CCCCc1nc2c(N)nnc(CCC(C)C)c2n1C[C@H]1CC[C@H](CN)CC1` [Compound 138, 1-(((1R,4R)-4-(aminomethyl)cyclohexyl)methyl)-2-butyl-7-isopentyl-1H-imidazo[4,5-d]pyridazin-4-amine], in that order: above 20 µM and 0.0514 µM.
On to `CCCCc1nc2c(N)nnc(/C=C/C(C)C)c2n1C[C@H]1CC[C@H](N)CC1` [Compound 139, 1-(((1R,4R)-4-aminocyclohexyl)methyl)-2-butyl-7-((E)-3-methylbut-1-en-1-yl)-1H-imidazo[4,5-d]pyridazin-4-amine], for which the EC50 was above 20 µM on human TLR8 and 0.37 µM on human TLR7.
For `CCCCc1nc2c(N)nnc(CCC(C)C)c2n1C[C@H]1CC[C@H](N)CC1` [Compound 140, 1-(((1R,4R)-4-aminocyclohexyl)methyl)-2-butyl-7-isopentyl-1H-imidazo[4,5-d]pyridazin-4-amine] the same measures were above 20 µM and 1.31 µM.
Consider `CCCCc1nc2c(N)nnc(-c3cc[nH]c3)c2n1C[C@H]1CC[C@H](N)CC1` [Compound 141, 1-(((1R,4R)-4-aminocyclohexyl)methyl)-2-butyl-7-(1H-pyrrol-3-yl)-1H-imidazo[4,5-d]pyridazin-4-amine], for which the activation at 20 µM turned out to be 19.6% at human TLR8 and 26.8% at human TLR7.
